Measured values reported in ChEMBL document CHEMBL5620423, “Highly-tumor-targeted PAD4 inhibitors with PBA modification inhibit tumors in vivo by specifically inhibiting the PAD4-H3cit-NETs pathway in neutrophils” (Eur J Med Chem, 2023).

Assays:
4T1 = assay: Cytotoxicity against mouse 4T1 cells assessed as reduction in cell viability measured after 48 hrs by MTT assay; details: 4T1, 48 h
Sarcoma-180 [1] = assay: Antitumor activity against Sarcoma-180 mouse model assessed as inhibition of tumor growth at 10 umol/kg; type: functional
Sarcoma-180 [2] = assay: Antitumor activity against Sarcoma-180 mouse model assessed as tumor weight at 10 umol/kg (reference value: 1.65 +/-0.2 gms); type: functional; details: dose 10 µmol/kg
Sarcoma-180 [3] = assay: Antitumor activity against Sarcoma-180 mouse model assessed as inhibition of tumor growth at 2 umol/kg; type: functional
Sarcoma-180 [4] = assay: Antitumor activity against Sarcoma-180 mouse model assessed as tumor weight at 2 umol/kg (reference value: 1.65 +/-0.2 gms); type: functional; details: dose 2 µmol/kg

Structure (SMILES) | IC50 (4T1) [µM] | inhibition in vivo at 10 µmol/kg (Sarcoma-180 [1]) [%] | Activity (Sarcoma-180 [2]) [g] | inhibition in vivo at 2 µmol/kg (Sarcoma-180 [3]) [%] | Activity (Sarcoma-180 [4]) [g]
N=C(CCl)NCCC[C@H](NC(=O)c1cccc(B(O)O)c1F)C(=O)NCc1ccccc1 | > 100 | 43.7 | 0.93 | – | –
N=C(CCl)NCCC[C@H](NC(=O)c1cc(B(O)O)ccc1F)C(=O)NCc1ccccc1 | > 100 | 30.8 | 1.14 | – | –
N=C(CCl)NCCC[C@H](NC(=O)c1cccc(B(O)O)c1)C(=O)NCc1ccccc1 | > 100 | 36.7 | 1.04 | – | –
N=C(CCl)NCCC[C@H](NC(=O)c1cc([N+](=O)[O-])c2nonc2c1)C(=O)NCc1ccccc1B(O)O | > 100 | 45.7 | 0.89 | – | –
N=C(CCl)NCCC[C@H](NC(=O)c1cc(B(O)O)cc([N+](=O)[O-])c1)C(=O)NCc1ccccc1 | > 100 | 27.6 | 1.19 | – | –
COc1cccc2c1C(=O)c1c(O)c3c(c(O)c1C2=O)C[C@@](O)(C(=O)CO)C[C@@H]3O[C@H]1C[C@H](N)[C@H](O)[C@H](C)O1 [DOXORUBICIN] | 1.63 | – | – | 42.7 | 0.94
